Measured values as given in publication PMC8910297, “Investigation of the Molecular Details of the Interactions of Selenoglycosides and Human Galectin-3” (International Journal of Molecular Sciences, 2022).
Read-outs that look alike come from different tables or passages of the source.

What was measured:
[1] = target: T1, Human galectin-3 (hGal-3) (Homo sapiens, UniProt P17931); test: biochemical
T1 construct: gene LGALS3

[2] = target: T1, Human galectin-3 (hGal-3); test: biochemical; remark: listed apart in the source

T1 sequence (P17931 108-250): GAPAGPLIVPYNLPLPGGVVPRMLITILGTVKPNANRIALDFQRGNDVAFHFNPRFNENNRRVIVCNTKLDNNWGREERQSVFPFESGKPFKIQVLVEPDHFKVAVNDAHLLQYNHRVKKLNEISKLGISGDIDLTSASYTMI

SMILES	Kd [1] [mM]	Kd [2] [mM]
OC[C@H]1O[C@@H]([Se][Se][C@@H]2O[C@H](CO)[C@H](O)[C@H](O)[C@H]2O)[C@H](O)[C@@H](O)[C@H]1O [DSeDG, di(β-D-galactopyranosyl)diselenide]	8.5 ± 2.5	–
OC[C@H]1O[C@@H]([Se][C@@H]2O[C@H](CO)[C@H](O)[C@H](O)[C@H]2O)[C@H](O)[C@@H](O)[C@H]1O [SeDG, di(β-D-galactopyranosyl)selenide]	–	0.0352 ± 0.0072
